Assay results as given in patent US7385026B1, “Modified ghrelin polypeptides” (priority 1999, dated 2008).
Peptide text beside a SMILES is read from it. * marks the point of attachment. Octanoyl = CCCCCCCC(=O)*

The molecules below were run against T1, rat GHS-receptor (GHR-R) (Rattus norvegicus, UniProt O08725) (assay: Ca-releasing activity (increase in intracellular calcium) in CHO-GHSR62 cells, FLIPR). Conditions: CHO-GHSR62 cells (CHO cells expressing rat GHS receptor), FLIPR; read-out: Ca-releasing activity EC50.
T1 construct: A full-length cDNA for rat GHR-R was obtained by RT-PCR; expressed in transfected cells
Format: cell-based
Outline: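 CHO cells stably expressing full-length rat GHS-R (CHO-GHSR62) were cultured 12–15 h, loaded with 4 μM Fluo4 for 1 h and washed with Hank's BSS containing 20 mM Hepes and 2.5 mM probenecid. Ca-releasing activity of ghrelin peptides, fragments or derivatives was read by FLIPR as the fluorescence change after sample addition.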

T1 sequence (O08725 whole entry): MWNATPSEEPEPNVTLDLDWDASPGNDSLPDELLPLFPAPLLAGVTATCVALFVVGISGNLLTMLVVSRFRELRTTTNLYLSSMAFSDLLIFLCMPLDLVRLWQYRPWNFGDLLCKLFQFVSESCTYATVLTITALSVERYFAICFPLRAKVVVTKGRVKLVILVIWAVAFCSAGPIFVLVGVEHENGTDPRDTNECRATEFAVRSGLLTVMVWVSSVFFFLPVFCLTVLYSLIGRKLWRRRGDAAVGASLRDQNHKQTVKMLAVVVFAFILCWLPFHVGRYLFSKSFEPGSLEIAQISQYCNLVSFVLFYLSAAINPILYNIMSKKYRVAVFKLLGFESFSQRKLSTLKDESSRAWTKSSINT

Point of comparison: `CCCC[C@H](NC(=O)[C@H](CO)NC(=O)CN)C(=O)N[C@@H](Cc1ccccc1)C(=O)N[C@@H](CC(C)C)C(=O)N[C@@H](CO)C(=O)N1CCC[C@H]1C(=O)N[C@@H](CCC(=O)O)C(=O)N[C@@H](Cc1c[nH]cn1)C(=O)N[C@@H](CCC(N)=O)C(=O)N[C@@H](CCCNC(=N)N)C(=O)N[C@H](C(=O)N[C@@H](CCC(N)=O)C(=O)N[C@@H](CCC(N)=O)C(=O)N[C@@H](CCCNC(=N)N)C(=O)N[C@@H](CCCCN)C(=O)N[C@@H](CCC(=O)O)C(=O)N[C@@H](CO)C(=O)N[C@@H](CCCCN)C(=O)N[C@@H](CCCCN)C(=O)N1CCC[C@H]1C(=O)N1CCC[C@H]1C(=O)N[C@@H](C)C(=O)N[C@@H](CCCCN)C(=O)N[C@@H](CC(C)C)C(=O)N[C@@H](CCC(N)=O)C(=O)N1CCC[C@H]1C(=O)N[C@@H](CCCNC(=N)N)C(=O)O)C(C)C` [Compound 73, [Nle^3]-hGhrelin], EC50 2800 nM. Against it:
- CC(C)CCC(=O)OC[C@H](NC(=O)[C@H](CO)NC(=O)CN)C(=O)N[C@@H](Cc1ccccc1)C(=O)N[C@@H](CC(C)C)C(=O)N[C@@H](CO)C(=O)N1CCC[C@H]1C(=O)N[C@@H](CCC(=O)O)C(=O)N[C@@H](Cc1c[nH]cn1)C(=O)N[C@@H](CCC(N)=O)C(=O)N[C@@H](CCCNC(=N)N)C(=O)N[C@H](C(=O)N[C@@H](CCC(N)=O)C(=O)N[C@@H](CCC(N)=O)C(=O)N[C@@H](CCCNC(=N)N)C(=O)N[C@@H](CCCCN)C(=O)N[C@@H](CCC(=O)O)C(=O)N[C@@H](CO)C(=O)N[C@@H](CCCCN)C(=O)N[C@@H](CCCCN)C(=O)N1CCC[C@H]1C(=O)N1CCC[C@H]1C(=O)N[C@@H](C)C(=O)N[C@@H](CCCCN)C(=O)N[C@@H](CC(C)C)C(=O)N[C@@H](CCC(N)=O)C(=O)N1CCC[C@H]1C(=O)N[C@@H](CCCNC(=N)N)C(=O)O)C(C)C [Compound 69, [Ser^3(4-Methylpentanoyl)]-hGhrelin] — 640-fold lower, 4.4 nM
- CC(C)C[C@H](NC(=O)[C@H](CCCCN)NC(=O)[C@H](C)NC(=O)[C@@H]1CCCN1C(=O)[C@@H]1CCCN1C(=O)[C@H](CCCCN)NC(=O)[C@H](CCCCN)NC(=O)[C@H](CO)NC(=O)[C@H](CCC(=O)O)NC(=O)[C@H](CCCCN)NC(=O)[C@H](CCCNC(=N)N)NC(=O)[C@H](CCC(N)=O)NC(=O)[C@H](CCC(N)=O)NC(=O)[C@@H](NC(=O)[C@H](CCCNC(=N)N)NC(=O)[C@H](CCC(N)=O)NC(=O)[C@H](Cc1c[nH]cn1)NC(=O)[C@H](CCC(=O)O)NC(=O)[C@@H]1CCCN1C(=O)[C@H](CO)NC(=O)[C@H](CC(C)C)NC(=O)[C@H](Cc1ccccc1)NC(=O)[C@H](CCCCN)NC(=O)[C@H](CO)NC(=O)CN)C(C)C)C(=O)N[C@@H](CCC(N)=O)C(=O)N1CCC[C@H]1C(=O)N[C@@H](CCCNC(=N)N)C(=O)O [Compound 72, [Lys^3]-hGhrelin] — 23-fold lower, 120 nM
- CC(C)C[C@H](NC(=O)[C@H](CCCCN)NC(=O)[C@H](C)NC(=O)[C@@H]1CCCN1C(=O)[C@@H]1CCCN1C(=O)[C@H](CCCCN)NC(=O)[C@H](CCCCN)NC(=O)[C@H](CO)NC(=O)[C@H](CCC(=O)O)NC(=O)[C@H](CCCCN)NC(=O)[C@H](CCCNC(=N)N)NC(=O)[C@H](CCC(N)=O)NC(=O)[C@H](CCC(N)=O)NC(=O)[C@@H](NC(=O)[C@H](CCCNC(=N)N)NC(=O)[C@H](CCC(N)=O)NC(=O)[C@H](Cc1c[nH]cn1)NC(=O)[C@H](CCC(=O)O)NC(=O)[C@@H]1CCCN1C(=O)[C@H](CO)NC(=O)[C@H](CC(C)C)NC(=O)[C@H](Cc1ccccc1)NC(=O)[C@@H](NC(=O)[C@H](CO)NC(=O)CN)C(C)C)C(C)C)C(=O)N[C@@H](CCC(N)=O)C(=O)N1CCC[C@H]1C(=O)N[C@@H](CCCNC(=N)N)C(=O)O [Compound 74, [Val^3]-hGhrelin] — 1.8-fold lower, 1600 nM
- CCCCCCCC(=O)OC[C@H](NC(=O)[C@H](CO)NC(=O)CN)C(=O)N[C@@H](Cc1ccccc1)C(=O)N[C@@H](CC(C)C)C(=O)N[C@@H](CO)C(=O)N[C@@H](CCCCN)C(N)=O [Compound 75, [Lys^7]-Ghrelin (1-7)-amide] (H-GSS(Octanoyl)FLSK-NH2) — 250-fold lower, 11 nM
- CCCCCCCCOC[C@H](NC(=O)CCCCN)C(=O)N[C@@H](Cc1ccccc1)C(=O)N[C@@H](CCCCN)C(N)=O [Compound 76, [N-Aminopentanoyl, Ser^3(Octyl), Lys^5]-Ghrelin (3-5)-amide] — 230-fold lower, 12 nM
